Tests used:
Assay type in all cases: in vivo
[1] = tested on: adult unfed cat fleas (Ctenocephalides felis); test: Ctenocephalides felis oral test; settings: 48 h, 100 ppm in cattle blood, after 2 days
Experimental: (§1) Solvent: dimethyl sulfoxide
To produce a suitable preparation of active compound, 10 mg of active compound are dissolved in 0.5 mL solvent, and the concentrate is diluted with cattle blood to the desired concentration.
Approximately 20 adult unfed cat fleas (Ctenocephalides felis) are placed in flea chambers. The blood chamber, sealed with parafilm on the bottom, are filled with cattle blood supplied with compound solution and placed on the gauze covered top of the flea chamber, so that the fleas are able to suck the blood. The blood chamber is heated to 37° C. whereas the flea chamber is kept at room temperature.
After 2 days mortality in % is determined. 100% means all the fleas have been killed; 0% means none of the fleas have been killed.

[2] = tested on: adult engorged female ticks (Rhipicephalus microplus); test: Rhipicephalus (Boophilus) microplus injection test; settings: 168 h, egg deposition after 7 days, read-out: efficacy (infertile eggs); for pest or weed control at 0.004 mg: 4 μg/animal; for pest or weed control at 0.02 mg: 20 μg/animal
Experimental: as §1
To produce a suitable preparation of active compound, 10 mg of active compound are dissolved in 0.5 mL solvent, and the concentrate is diluted with solvent to the desired concentration.
Five adult engorged female ticks (Rhipicephalus microplus) are injected with 1 μL compound solution into the abdomen. The ticks are transferred into replica plates and incubated in a climate chamber.
After 7 days egg deposition of fertile eggs is monitored. Eggs where fertility is not visible are stored in a climate chamber till hatching after about 42 days. An efficacy of 100% means all eggs are infertile; 0% means all eggs are fertile.

[3] = tested on: cattle tick larvae (Rhipicephalus microplus), strain Parkhurst, resistant against synthetic pyrethroids; test: Rhipicephalus (Boophilus) microplus in-vitro contact test, larval cattle tick; settings: 5 μg/cm^2 (=500 g/ha), after 48 hours, read-out: efficacy (larvae dead or moribund)
Experimental: (§2) 9 mg compound is solved in 1 mL acetone and diluted with acetone to the desired concentration. 250 μL of the test solution is filled in 25 mL glass test tubes and homogeneously distributed on the inner walls by rotation and tilting on a shaking device (2 h at 30 rpm). With a compound concentration of 900 ppm, an inner surface of 44.7 cm^2 and a homogeneous distribution, a dose of 5 μg/cm^2 is achieved.
After the solvent has evaporated, each test tube is filled with 20-50 cattle tick larvae (Rhipicephalus microplus), closed with a perforated lid and incubated in a horizontal position at 85% relative humidity and 27° C. in an incubator. After 48 hours efficacy is determined. The larvae are patted on the ground of the tubes and negative geotactic behaviour is recorded.
An efficacy of 100% means all larvae are dead or moribund; 0% means no larvae are dead or moribund.

[4] = tested on: larvae of the banded cucumber beetle (Diabrotica balteata); test: Diabrotica balteata spray test; settings: 168 h, 100 g/ha (=32 μg/well), after 7 days, wheat seeds, read-out: efficacy (seedlings grown up)
Experimental: (§3) Solvent: 78.0 parts by weight of acetone • • 1.5 parts by weight of dimethylformamide
(§4) Emulsifier: alkylarylpolyglycol ether
(§5) To produce a suitable preparation of active compound, 1 part by weight of active compound is mixed with the stated amount of solvent, and the concentrate is diluted with water, containing an emulsifier concentration of 1000 ppm, to the desired concentration. Further test concentrations are prepared by dilution with emulsifier containing water.
Soaked wheat seeds (Triticum aestivum) are placed in a multiple well plate filled with agar and some water and are incubated for 1 day to germinate (5 seeds per well). The germinated wheat seeds are sprayed with a test solution containing the desired concentration of the active ingredient. Afterwards each unit is infected with 10-20 larvae of the banded cucumber beetle (Diabrotica balteata).
After 7 days efficacy in % is determined. 100% means all the seedlings have grown up like in the untreated, uninfected control; 0% means none of the seedlings have grown.

[5] = tested on: fall armyworm larvae (Spodoptera frugiperda); test: Spodoptera frugiperda spray test (maize leaf sections); settings: 168 h
Experimental: Solvent: 78.0 parts by weight acetone • 1.5 parts by weight dimethylformamide
as §4
as §5, with “solvents” for “solvent,”, “and” for “and the concentrate”
Maize (Zea mays) leaf sections are sprayed with a preparation of the active ingredient of the desired concentration. Once dry, the leaf sections are infested with fall armyworm larvae (Spodoptera frugiperda).
After 7 days mortality in % is determined. 100% means all caterpillars have been killed and 0% means none of the caterpillars have been killed.

[6] = tested on: larvae of the southern green stink bug (Nezara viridula); test: Nezara viridula spray test; settings: in Hordeum vulgare, 96 h
Experimental: as §3, §4, §5
Barley plants (Hordeum vulgare) infested with larvae of the southern green stink bug (Nezara viridula) are sprayed with a test solution containing the desired concentration of the active ingredient.
After 4 days mortality in % is determined. 100% means all the stink bugs have been killed; 0% means none of the stink bugs have been killed.

[7] = tested on: adult brown dog ticks (Rhipicephalus sanguineus); test: Rhipicephalus sanguineus in-vitro contact test with adult brown dog ticks; settings: 5 μg/cm^2 (=500 g/ha), after 48 hours, read-out: efficacy (ticks dead or moribund)
Experimental: as §2
After the solvent has evaporated, each test tube is filled with 5-10 adult brown dog ticks (Rhipicephalus sanguineus), closed with a perforated lid and incubated in a lying position at room temperature and relative humidity. After 48 hours efficacy is determined. The ticks are patted on the ground of the tubes and are incubated on a heating plate at 45-50° C. for at most 5 minutes. Immotile or uncoordinated moving ticks, which are not able to escape the heat by climbing upwards, are marked as dead or moribund.
An efficacy of 100% means all ticks are dead or moribund; 0% means no ticks are dead or moribund.

Row | Structure (SMILES) | mortality at 100 ppm [1] | pest or weed control at 0.004 mg [2] | pest or weed control at 5 µg/cm2 [3] | pest or weed control at 0.02 mg [2] | further results
1 | CC(NC(=O)c1cc(Cl)cc(C(F)(F)F)c1)c1nc(C#N)nn1-c1ccc(C#N)cn1 (stereo not shown) [I-081] | 90% | 100% | 100% | – | pest or weed control at 32 µg/disc, 100 g/ha [4]: 100%
2 | CC(NC(=O)c1cc(Cl)cc(C(F)(F)F)c1)c1nc(NC(=O)C2(Cl)CC2)nn1-c1ccc(Cl)cn1 (stereo not shown) [I-014] | 100% | 100% | 100% | 100% | mortality at 100 g/ha [5]: 100%; mortality at 500 g/ha [5]: 100%
3 | CC(NC(=O)c1cc(C(F)(F)F)cc(C(F)(F)F)c1)c1nc(Cc2ccccc2)nn1-c1ncccn1 (racemic) [I-082, N-[1-(5-benzyl-2-pyrimidin-2-yl-1,2,4-triazol-3-yl)ethyl]-3,5-bis(trifluoromethyl)benzamide] | 100% | 100% | – | – | pest or weed control at 32 µg/disc, 100 g/ha [4]: 80%
4 | CC(NC(=O)c1cc(Cl)nc(Cl)c1)c1nc(-c2cnccn2)nn1-c1ccc(Cl)cn1 (stereo not shown) [I-035] | 100% | – | 100% | 100% | –
5 | CC(NC(=O)c1cc(Cl)cc(C(F)(F)F)c1)c1nc(SC(F)(C(F)(F)F)C(F)(F)F)nn1-c1ccc(Cl)cn1 (stereo not shown) [I-070] | – | 100% | 100% | 100% | –
6 | CC(NC(=O)c1cc(Cl)cc(C(F)(F)F)c1)c1nc(-c2cnccn2)nn1-c1ccc(Cl)cn1 (stereo not shown) [I-040] | 100% | 100% | 100% | 100% | –
7 | CC(NC(=O)c1cncc(C(F)(F)F)c1)c1nc(-c2cnccn2)nn1-c1ccc(Cl)cn1 (stereo not shown) [I-038] | 100% | 100% | – | 100% | –
8 | CC(NC(=O)c1cc(Cl)cc(C(F)(F)F)c1)c1nc(-c2cnccn2)nn1-c1ncccn1 (stereo not shown) [I-047] | 100% | 100% | – | 100% | mortality at 500 g/ha [5]: 83%
9 | CC(NC(=O)c1cc(Br)cc(C(F)(F)F)c1)c1nc(-c2cnccn2)nn1-c1ccc(Cl)cn1 (stereo not shown) [I-036] | 100% | – | 100% | 100% | mortality at 100 g/ha [5]: 100%; mortality at 500 g/ha [5]: 100%
10 | CC(NC(=O)c1cc(C(F)(F)F)cc(C(F)(F)F)c1)c1nc(N2CCOCC2)nn1-c1ccc(C#N)cn1 (stereo not shown) [I-158] | – | – | 100% | – | pest or weed control at 32 µg/disc, 100 g/ha [4]: 100%; mortality at 100 g/ha [5]: 100%
11 | CC(=O)Nc1nc(C(C)NC(=O)c2cc(OC(F)(F)F)cc(C3CC3)c2)n(-c2ccc(C#N)cn2)n1 (stereo not shown) [I-124] | – | – | 100% | – | pest or weed control at 32 µg/disc, 100 g/ha [4]: 100%; mortality at 100 g/ha [5]: 100%
12 | CC(NC(=O)c1cc(Cl)nc(C(F)(F)F)c1)c1nc(-c2cnccn2)nn1-c1ccc(Cl)cn1 (stereo not shown) [I-037] | 90% | 100% | – | 100% | –
13 | CC(NC(=O)c1cc(Cl)nc(Cl)c1)c1nc(-c2cnccn2)nn1-c1ncccn1 (stereo not shown) [I-049] | 100% | 80% | – | 100% | –
14 | CC(NC(=O)c1cncc(C(F)(F)F)c1)c1nc(-c2cnccn2)nn1-c1ncccn1 (stereo not shown) [I-050] | 100% | 100% | – | 100% | –
15 | CC(NC(=O)c1cc(Cl)nc(C(F)(F)F)c1)c1nc(-c2cnccn2)nn1-c1ncccn1 (stereo not shown) [I-044] | 100% | 100% | – | 100% | –
16 | CC(NC(=O)c1cncc(C(F)(F)F)c1)c1nc(CS(C)(=O)=O)nn1-c1ccc(Cl)cn1 (stereo not shown) [I-030] | 100% | 100% | – | 100% | –
17 | CC(NC(=O)c1cc(Cl)nc(C(F)(F)F)c1)c1nc(-c2ncccn2)nn1-c1ncccn1 (stereo not shown) [I-056] | 100% | 80% | – | 100% | –
18 | CC(NC(=O)c1cc(Cl)cc(S(C)(=O)=O)c1)c1nc(SC(F)(C(F)(F)F)C(F)(F)F)nn1-c1ccc(Cl)cn1 (stereo not shown) [I-069] | – | 100% | 100% | 100% | –
19 | CC(NC(=O)c1cncc(C(F)(F)F)c1)c1nc(-c2ccc(Cl)nc2)nn1-c1ncccn1 (stereo not shown) [I-042] | 90% | – | – | 100% | –
20 | CC(NC(=O)c1cc(Cl)cc(S(C)(=O)=O)c1)c1nc(-c2cnccn2)nn1-c1ccc(Cl)cn1 (stereo not shown) [I-039] | 100% | 100% | – | 80% | –
21 | CC(NC(=O)c1cc(OC(F)(F)F)cc(C2CC2)c1)c1nc(N2CCOCC2)nn1-c1ccc(C#N)cn1 (stereo not shown) [I-161] | – | – | 100% | – | pest or weed control at 32 µg/disc, 100 g/ha [4]: 100%
22 | CC(NC(=O)c1cc(Cl)cc(S(C)(=O)=O)c1)c1nc(NC(=O)C2CC2(F)F)nn1-c1ncccn1 (stereo not shown) [I-021] | 100% | 80% | – | – | mortality at 100 g/ha [6]: 90%
23 | CC(NC(=O)c1cc(OC(F)(F)F)cc(C2CC2)c1)c1nc(N)nn1-c1ccc(C#N)cn1 (stereo not shown) [I-122] | – | – | 100% | – | pest or weed control at 32 µg/disc, 100 g/ha [4]: 100%
24 | CC(NC(=O)c1cc(Cl)cc(Cl)c1)c1nc(CS(C)(=O)=O)nn1-c1ccc(Cl)cn1 (stereo not shown) [I-028] | 100% | 100% | – | 100% | –
25 | CC(NC(=O)c1cc(Br)cc(C(F)(F)F)c1)c1nc(-c2cnccn2)nn1-c1ncccn1 (stereo not shown) [I-048] | 100% | 100% | – | – | mortality at 500 g/ha [5]: 83%
26 | CC(NC(=O)c1cc(Cl)cc(Cl)c1)c1nc(-c2cnccn2)nn1-c1ncccn1 (stereo not shown) [I-046] | 100% | 100% | – | 100% | mortality at 500 g/ha [5]: 100%
27 | CC(NC(=O)c1cc(C(F)(F)F)cc(C(F)(F)F)c1)c1nc(NC(=O)OC(C)(C)C)nn1-c1ccc(C(=O)N2CCOCC2)cn1 (stereo not shown) [I-113] | – | – | 90% | – | pest or weed control at 32 µg/disc, 100 g/ha [4]: 100%
28 | CC(NC(=O)c1cc(Cl)cc(C(F)(F)F)c1)c1nc(-c2ccc(Cl)nc2)nn1-c1ccc(Cl)cn1 (stereo not shown) [I-032] | – | – | – | – | pest or weed control at 5 µg/cm2, 500 g/ha [7]: 80%
29 | CC(NC(=O)c1cc(Cl)cc(C(F)(F)F)c1)c1nc(Cc2ccccc2)nn1-c1ncccn1 (stereo not shown) [I-083] | 90% | – | – | – | pest or weed control at 32 µg/disc, 100 g/ha [4]: 100%
30 | CC(NC(=O)c1cc(Cl)cc(S(C)(=O)=O)c1)c1nc(N)nn1-c1ncccn1 (stereo not shown) [I-008] | 100% | 100% | – | – | –
